This passage reports Activity results from ChEMBL document CHEMBL2073760, “Efflux transport of a new quinolone antibacterial agent, HSR-903, across the blood-brain barrier” (J Pharmacol Exp Ther, 1999).

SMILES strings stand for the structures.

The target of the data set is ATP-dependent translocase ABCB1 (Mus musculus, UniProt P21447). The experiment in a line: TP_TRANSPORTER: increase in brain concentration in mdr1a(-/-) mouse. The data set is classed as functional, organism-based. To be noted: in vivo.
Sequence of ATP-dependent translocase ABCB1 (P21447 whole entry): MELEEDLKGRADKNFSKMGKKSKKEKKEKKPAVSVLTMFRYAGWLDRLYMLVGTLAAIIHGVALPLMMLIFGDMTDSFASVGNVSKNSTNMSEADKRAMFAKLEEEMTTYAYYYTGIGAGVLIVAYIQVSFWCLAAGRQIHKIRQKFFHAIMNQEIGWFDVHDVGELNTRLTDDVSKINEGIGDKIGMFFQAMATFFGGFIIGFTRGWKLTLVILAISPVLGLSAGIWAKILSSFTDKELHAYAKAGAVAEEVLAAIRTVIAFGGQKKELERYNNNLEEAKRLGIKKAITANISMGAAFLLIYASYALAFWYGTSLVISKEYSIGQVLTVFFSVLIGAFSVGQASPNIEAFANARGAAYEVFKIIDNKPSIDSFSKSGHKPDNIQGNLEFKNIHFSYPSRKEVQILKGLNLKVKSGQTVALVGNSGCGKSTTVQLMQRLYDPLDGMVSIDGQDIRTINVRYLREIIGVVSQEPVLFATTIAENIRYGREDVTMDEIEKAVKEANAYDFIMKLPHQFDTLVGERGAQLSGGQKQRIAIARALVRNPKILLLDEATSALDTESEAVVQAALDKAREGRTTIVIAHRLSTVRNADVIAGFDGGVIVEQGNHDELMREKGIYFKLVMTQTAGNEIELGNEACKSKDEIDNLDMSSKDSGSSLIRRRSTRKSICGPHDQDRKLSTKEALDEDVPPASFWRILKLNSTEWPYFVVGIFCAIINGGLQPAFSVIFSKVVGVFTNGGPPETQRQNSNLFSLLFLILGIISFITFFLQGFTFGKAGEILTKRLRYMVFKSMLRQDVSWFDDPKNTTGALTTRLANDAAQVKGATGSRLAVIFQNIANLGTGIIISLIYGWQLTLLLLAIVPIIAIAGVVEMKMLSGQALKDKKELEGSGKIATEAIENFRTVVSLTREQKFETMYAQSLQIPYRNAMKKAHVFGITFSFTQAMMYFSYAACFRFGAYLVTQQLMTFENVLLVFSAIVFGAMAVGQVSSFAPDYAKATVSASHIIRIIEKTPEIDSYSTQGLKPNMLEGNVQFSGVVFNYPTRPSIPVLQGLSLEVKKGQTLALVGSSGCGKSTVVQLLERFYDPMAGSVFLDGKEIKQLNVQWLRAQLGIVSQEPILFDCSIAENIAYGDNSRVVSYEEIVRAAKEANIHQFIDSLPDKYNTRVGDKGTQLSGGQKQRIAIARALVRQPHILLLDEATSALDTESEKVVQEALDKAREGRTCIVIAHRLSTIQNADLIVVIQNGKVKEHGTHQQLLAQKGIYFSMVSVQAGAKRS

For `CS(=O)(=O)O.Cc1c(N2C[C@@H](N)C3(CC3)C2)c(F)c(N)c2c(=O)c(C(=O)O)cn(C3CC3)c12`, the Activity entry was “substrate [+]”.
